Experimental data reported in US20030176358A1, “METHOD OF TREATING ENVIRONMENTAL STRESS” (priority 1997, published 2003).

How the values were obtained:
[1] = test system: medial aspect of a human forearm exposed to tobacco smoke or exhaust gas; assay: Testing of suppression of a reduction in the corneum moisture content; format: in vivo; conditions: 1.0 wt % aqueous solution applied on human forearm; exposure 10 minutes a day for three months; Corneometer
Method: The floating fine particles exposure apparatus shown in FIG. 1 was used to expose a testee's skin to tobacco (with […] of tar and 2.4 mg of nicotine) smoke or exhaust gas fine particles sampled from an exhaust outlet of an automobile for 10 minutes per day for three months consecutively by bringing the medial aspect of the testee's forearm near the discharge port 14 of the floating fine particles of this exposure apparatus 10 (Exposure apparatus 10 uses a three-mouthed flask 11. That is, one of the mouths of the three-mouthed flask is used as an air inlet 12, another is used as an inlet 13 for floating fine particles such as tobacco smoke, and the third mouth is used as a discharge port 14. Floating fine particles such as tobacco smoke flow in through inlet 13 of the floating fine particles and an air flow which flows in through air inlet 12 is used to discharge them through open discharge port 14 of the floating fine particles. An object which is brought close to this discharge port 14 can be exposed to the floating fine particles such as tobacco smoke. Changes in the corneum moisture content after consecutive exposure to tobacco smoke or exhaust gas fine particles for the aforementioned three months were analyzed by using a Corneometer™ (Courage and Khazaka, Germany). The corneum moisture content is one of the indicators of skin conditions and is known to be an indicator which allows determination of the amount of moisture in the corneum. That is, in the case of rough skin, the corneum moisture content is smaller. A higher value of the corneum moisture content indicates better skin conditions. […] For each of these, the blank value of the corneum moisture content was measured. For the controls, “the group with no drug applied” and “the non-exposure group”, which was not exposed to tobacco smoke or exhaust gas, were used. Using the tobacco smoke exposure apparatus shown in the aforementioned FIG. 1, the medial aspect of the human forearm onto which the aforementioned ingredients had been applied was exposed to tobacco smoke or exhaust gas for 10 minutes a day for three months and the corneum moisture content of that area was investigated.

[2] = test system: medial aspect of a human forearm exposed to tobacco smoke; assay: Testing of suppression of oxidation (ultraweak chemiluminescence of the skin); format: in vivo; conditions: 1.0 wt % solution applied on human forearm; tobacco smoke 90 seconds; measured for 30 minutes from 60 seconds after exposure
Description: It is known that a phenomenon called “ultraweak chemiluminescence: CL” occurs on the skin of a living body including a human. This ultraweak chemiluminescence is known to occur in the radiation deactivation process of electrons from the excited state to the ground state.
For example, radicals such as singlet oxygen, excited carbonic acid, excited carbonyl, etc. are known to be this luminescent substance in a living body. Therefore, if this ultraweak chemiluminescence can be monitored, it is possible to adequately identify the oxidation reactions occurring on the human skin.
An 1.0 wt % aqueous solution of each of 1) thiotaurine (from Sogo Pharmaceutical Co., Ltd.), 2) hypotaurine (from Sogo Pharmaceutical Co., Ltd.), 3) glutathione, 4) tannin and 5) vitamin C derivative [L-ascorbic acid phosphate (magnesium)] was applied on the medial aspect of a human forearm. For each of these, a chemiluminescence detector (model OX-7 from Tohoku Electronic Industries Co., Ltd.) whose sample chamber had been modified for a human arm was used to carry out a 30 minute measurement to obtain the blank value of the ultraweak chemiluminescence for each of them. For the control, a solution of 1.0 wt % α-tocopherol was used.
In the same manner as in the aforementioned environmental stress suppression testing which used the corneum moisture content of the skin as the indicator, the medial aspect of a human forearm was brought close to the floating fine particles exposure apparatus shown in FIG. 1 to expose the medial aspect of the forearm, onto which the aforementioned ingredient(s) had been applied, to tobacco smoke for 90 seconds. Sixty seconds after exposure, the ultraweak chemiluminescence of the exposed part was measured for 30 minutes in the same manner as described above. […]

SMILES	suppression of the aggravation of skin conditions (reduction in the corneum moisture content) due to exposure to tobacco smoke or exhaust gas [1]	reduction of the ultraweak chemiluminescence (oxidation reactions) on the skin [2]
N[C@@H](CCC(=O)N[C@@H](CS)C(=O)NCC(=O)O)C(=O)O [glutathione]	effectively prevented	particularly significant
NCCS(=O)O [hypotaurine]	effectively prevented	–
NCCS(=O)(O)=S [thiotaurine]	effectively prevented	particularly significant
Cc1c(C)c2c(c(C)c1O)CC[C@@](C)(CCC[C@H](C)CCC[C@H](C)CCCC(C)C)O2 [α-tocopherol, reference compound]	could only minimally suppress	could not effectively suppress
CC1=C(/C=C/C(C)=C/C=C/C(C)=C/C=C/C=C(C)/C=C/C=C(C)/C=C/C2=C(C)CCCC2(C)C)C(C)(C)CCC1 [β-carotene, reference compound]	could only minimally suppress	–
